# Earlier results, collected in patent publication US20180125772A1, “Oral Care Compositions” (Colgate-Palmolive Company, priority 2016, published 2018).
# Details: aqueous solution, pH of no net charge
smiles,measurement,value
NCCCC[C@H](N)C(=O)O [lysine],isoelectric point,9.7 pH
